Earlier results, collected in patent US20040040468A1, “Drier for printing ink and printing ink containing drier” (DAINIPPON INK AND CHEMICALS, INC., priority 2002, published 2004).

System: rat
Settings: from database REGISTRY OF TOXIC EFFECTS OF CHEMICAL SUBSTANCES

| Substance | LD50 (rat, oral administration) [mg/kg] |
| --- | --- |
| Cobalt naphthenate | 3900 |
| Manganese naphthenate | 6000 |
